{"source": "patent US20230212202A1", "about": "“TREATMENT OF MGMT DEFICIENT CANCER WITH 2-FLUOROETHYL-SUBSTITUTED NITROSOUREAS AND OTHER COMPOUNDS” (YALE UNIVERSITY, priority 2021, published 2023)", "key": {"[1]": {"test_system": "LN229 MGMT+/-, MMR+/- cells", "assay": "Cell cycle analysis", "assay_type": "cell-based, human", "conditions": "20 µM", "method": "Cell Cycle Analysis. Cell cycle analysis was performed using integrated Hoechst nucleic acid dye fluorescence intensity as previously described (51). Briefly, integrated Hoechst fluorescence intensity was log2 transformed and histograms from DMSO-treated cells were used to identify the centers of the 2 N and 4 N DNA peaks. These values were used to normalize the 2 N DNA peak to 1 and the 4 N DNA peak to 2. Cells were then classified by normalized log2 DNA content as G1 (0.75-1.25), S (1.25-1.75), or G2 (1.75-2.5) phase cells. The percentage of cells within each phase of the cell cycle was determined for each treatment condition. The three sets of Hoechst-stained cells corresponding to the three separate DNA foci stains were treated as three independent analyses."}, "[2]": {"test_system": "FANCD2 ubiquitination in LN229 MGMT+/-, MMR+/- cells", "assay": "Western blot analysis of FANCD2 ubiquitination", "assay_type": "cell-based, human", "method": "Western Blotting. For phospho-protein analysis experiments, cells were lysed in 1X RIPA buffer (Cell Signaling Technology, #9806) supplemented with 1X Protease Inhibitor Cocktail (Roche) and 1X PhosSTOP Phosphatase Inhibitor Cocktail (Sigma). For all other western blot analyses, cells were lysed in lysis buffer (50 mM HEPES, 250 mM NaCl, 5 mM EDTA, 1% NP-40) supplemented with 1X Protease Inhibitor Cocktail (Roche). The de-ubiquitination inhibitor N-ethylmaleimide (NEM, 4 mM) was added in FANCD2 ubiquitination analysis experiments. Proteins were separated using NuPAGE 4-12% Bis-Tris or 3-8% Tris-Acetate Gels (Invitrogen) and transferred to Immobilon-P PVDF membrane (Millipore) for western blotting. Membranes were blocked with 5% milk in TBS-T for 1 h prior to primary antibody addition overnight at 4° C. […] Where shown, bands were quantified using ImageJ software."}, "[3]": {"assay": "Maximum tolerated dose study in healthy mice", "assay_type": "in vivo, mouse", "method": "Healthy mice were treated with escalating doses of KL-50 (4a) (0, 25, 50, 100, and 200 mg/kg × 1 dose), and monitored over time for changes in both weights and hematologic profiles. Mice in the higher dosage groups (100 or 200 mg/kg) experienced a greater than 10% weight loss after treatment administration, which regressed to baseline at the end of one week (FIG. 6B). […] As the main dose limiting systemic toxicity of TMZ (1a) is myelosuppression, complete blood counts were measured for all mice on day 0 before treatment and subsequently on day 7 after drug administration."}, "LN229 MGMT-/MMR+ cells": {"test_system": "LN229 MGMT-/MMR+ cells", "assay": "IR alkaline comet assay", "assay_type": "cell-based, human"}, "LN229 MGMT-/MMR- cells": {"test_system": "LN229 MGMT-/MMR- cells", "assay": "IR alkaline comet assay", "assay_type": "cell-based, human", "conditions": "200 µM, 2-24 h"}, "[4]": {"test_system": "PD20 cells, FANCD2-/- or +FANCD2", "assay": "Short-term viability assay", "assay_type": "cell-based, human", "conditions": "PD20 FANCD2-/- vs +FANCD2"}}}
{"smiles": "NC(=O)c1ncn2c(=O)n(CCF)nnc12", "note": "[KL-50]", "values": [{"measurement": "G2 arrest", "setting": "[1]; MGMT+/MMR+ cells", "value": "moderate G2 arrest"}, {"measurement": "G2 arrest", "setting": "[1]; MGMT-/MMR+ cells", "value": "increasing G2 arrest on progression from 24 to 48 h"}, {"measurement": "G2 arrest", "setting": "[1]; MGMT-/MMR- cells", "value": "attenuated G2 arrest"}, {"measurement": "FANCD2 ubiquitination", "setting": "[2]", "value": "observed specifically in MGMT- cells"}, {"measurement": "tolerability", "setting": "[3]; 0, 25, 50, 100, 200 mg/kg × 1 dose", "value": "well-tolerated"}, {"measurement": "mice observably ill warranting euthanasia", "setting": "[3]; 200 mg/kg", "value": "Two of three mice"}, {"measurement": "weight loss after treatment administration", "setting": "[3]; 100 or 200 mg/kg, regressed to baseline at one week", "value": "greater than 10%"}, {"measurement": "complete blood counts", "setting": "[3]; day 7, all cohorts", "value": "within normal physiological ranges"}, {"measurement": "IR-induced comet tail (ICL detection)", "setting": "LN229 MGMT-/MMR+ cells; 200 µM, 24 h, 10 Gy", "value": "reduced the %DNA in the tail to levels similar to those seen for 0.1 µM MMC"}, {"measurement": "comet tailing in the absence of IR", "setting": "LN229 MGMT-/MMR+ cells; TMZ, KL-50 200 µM, MMC 0.1 or 50 µM", "value": "induced tailing"}, {"measurement": "DNA damage in unirradiated samples, time course", "setting": "LN229 MGMT-/MMR- cells; 0 Gy", "value": "maximal damage at 2 h"}, {"measurement": "DNA mobility after IR, time course", "setting": "LN229 MGMT-/MMR- cells; 10 Gy", "value": "time-dependent decrease in DNA mobility"}, {"measurement": "sensitivity of FANCD2-deficient cells", "setting": "[4]", "value": "hypersensitive"}]}
